# Source: patent US6608087B1, “Gyrase inhibitors and uses thereof” (Vertex Pharmaceuticals Incorporated, priority 2000, dated 2003)
# Target: E. coli gyrase A2B2 (Escherichia coli, UniProt P0AES6)
# Assay: ATPase assay, E. coli gyrase A2B2 (coupled pyruvate kinase/lactate dehydrogenase)
# Type: biochemical
# Conditions: 30° C., 0.9 mM ATP, 40 nM enzyme, read-out: Activity against E. coli gyrase (Ki)
# Method: The ATP hydrolysis activity of DNA gyrase was measured by coupling the production of ADP through pyruvate kinase/lactate dehydrogenase to the oxidation of NADH. This method has been described previously. (Tamura and Gellert, 1990, J. Biol. Chem.265, 21342-21349).
# ATPase assays were carried out at 30° C. in buffered solutions containing 100 mM TRIS pH 7.6, 1.5 mM MgCl2, and 150 mM KCl. The coupling system contained (final concentrations) 2.5 mM phosphoenol pyruvate, 200 μM nicotinamide adenine dinucleotide (NADH), 1 mM DTT, 30 ug/ml pyruvate kinase, and 10 ug/ml lactate dehydrogenase. 40 nM enzyme (374 kDa Gyr A2B2 from E coli) and a DMSO solution of the inhibitor to a final concentration of 4% were added and the reaction mixture allowed to incubate for 10 minutes at 30° C. The reaction was then started by the addition of ATP to a final concentration of 0.9 mM and the rate of NADH disappearance at 340 nm, measured over the course of 10 minutes. Ki values were determined from rate versus. inhibitor concentration profiles.
row,SMILES,Ki [µM]
1,COC(=O)NCc1cc(-c2sc(-c3ccccc3)nc2N2CCN(Cc3ccccc3)CC2)n[nH]1 [IA-18],0.5 to 1.5
2,COC(=O)NCc1cc(-c2sc(-c3ccccc3)nc2N2CCCCC2C)n[nH]1 (centres unmarked) [IA-30],< 0.5
3,COC(=O)NCc1cc(-c2sc(-c3ccccc3)nc2N2CCNCC2)n[nH]1 [IA-37],> 1.5
4,CC(C)OC(=O)NCc1cc(-c2sc(-c3ccccc3)nc2-c2ccccc2)n[nH]1 [IA-46],> 1.5
5,CCOC(=O)c1cc(-c2sc(-c3ccccc3)nc2CN2CCOCC2)n[nH]1 [IA-66],> 1.5
6,CCOC(=O)c1cc(-c2sc(-c3ccccc3)nc2CN2CCNCC2)n[nH]1 [IA-67],0.5 to 1.5
7,CCOC(=O)c1cc(-c2sc(-c3ccccc3)nc2CN(CC)CC)n[nH]1 [IA-69],> 1.5
8,"CCOC(=O)c1cc(-c2cnn(-c3cccc(Cl)c3)c2C)n[nH]1 [ID-28, 1′-(3-Chloro-phenyl)-5′-methyl-1H,1′H-[3,4′]bipyrazolyl-5-carboxylic Acid Ethyl Ester]",> 1.5
